Consider three molecules from ChEMBL document CHEMBL5291721, “A preclinical secondary pharmacology resource illuminates target-adverse drug reaction associations of marketed drugs” (Nat Commun, 2023).

Where only a bound is given, the exact number is not on record here.

Among the targets are Substance-P receptor (Homo sapiens, UniProt P25103); Glucagon receptor (Homo sapiens, UniProt P47871); Estrogen receptor beta (Homo sapiens, UniProt Q92731).
Experiment [1] has as its target 5-hydroxytryptamine receptor 2B (Homo sapiens, UniProt P41595).
In experiment [2] the target is T1, Corticotropin-releasing factor receptor 2 (Homo sapiens, UniProt Q13324).
T1 sequence (Q13324 whole entry): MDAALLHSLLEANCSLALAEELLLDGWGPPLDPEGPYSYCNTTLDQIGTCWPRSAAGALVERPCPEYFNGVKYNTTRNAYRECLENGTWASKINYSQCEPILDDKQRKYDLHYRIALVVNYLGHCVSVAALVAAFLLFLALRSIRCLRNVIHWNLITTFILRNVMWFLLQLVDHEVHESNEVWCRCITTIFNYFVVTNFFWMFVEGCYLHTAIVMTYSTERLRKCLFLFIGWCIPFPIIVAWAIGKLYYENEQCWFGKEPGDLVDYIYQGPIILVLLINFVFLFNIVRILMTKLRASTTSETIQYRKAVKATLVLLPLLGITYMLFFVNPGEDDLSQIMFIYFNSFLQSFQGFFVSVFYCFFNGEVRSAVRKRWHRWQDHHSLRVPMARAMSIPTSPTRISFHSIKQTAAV

Another experiment has as its target T2, D(4) dopamine receptor (Homo sapiens, UniProt P21917).
T2 sequence (P21917 whole entry): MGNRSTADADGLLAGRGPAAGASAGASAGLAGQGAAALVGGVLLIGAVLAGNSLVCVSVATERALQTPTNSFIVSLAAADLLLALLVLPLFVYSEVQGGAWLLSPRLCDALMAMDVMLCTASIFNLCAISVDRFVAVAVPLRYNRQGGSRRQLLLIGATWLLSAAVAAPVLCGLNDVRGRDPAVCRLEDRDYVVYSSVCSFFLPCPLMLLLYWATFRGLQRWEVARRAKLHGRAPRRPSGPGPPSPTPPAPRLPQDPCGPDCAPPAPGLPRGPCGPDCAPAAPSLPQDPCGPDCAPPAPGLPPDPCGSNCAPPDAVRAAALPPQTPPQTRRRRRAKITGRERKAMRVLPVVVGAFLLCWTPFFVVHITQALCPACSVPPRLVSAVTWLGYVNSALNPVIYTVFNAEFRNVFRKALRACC

The target in experiment [3] is T3, Corticotropin-releasing factor receptor 1 (Homo sapiens, UniProt P34998).
T3 sequence (P34998 whole entry): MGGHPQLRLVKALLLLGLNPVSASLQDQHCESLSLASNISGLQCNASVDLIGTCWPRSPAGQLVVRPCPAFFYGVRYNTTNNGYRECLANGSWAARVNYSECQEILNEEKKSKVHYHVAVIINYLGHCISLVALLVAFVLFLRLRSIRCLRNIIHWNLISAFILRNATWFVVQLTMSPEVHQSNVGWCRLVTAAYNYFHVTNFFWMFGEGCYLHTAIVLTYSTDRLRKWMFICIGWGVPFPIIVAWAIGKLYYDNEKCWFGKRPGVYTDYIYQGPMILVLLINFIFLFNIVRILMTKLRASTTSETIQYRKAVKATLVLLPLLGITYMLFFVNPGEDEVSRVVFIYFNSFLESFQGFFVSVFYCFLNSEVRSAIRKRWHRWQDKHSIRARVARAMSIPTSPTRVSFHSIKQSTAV

The target of experiment [4] is Gamma-aminobutyric acid receptor subunit alpha-1 (Rattus norvegicus, UniProt P62813).
Gamma-aminobutyric acid receptor subunit alpha-1, sequence (P62813 whole entry): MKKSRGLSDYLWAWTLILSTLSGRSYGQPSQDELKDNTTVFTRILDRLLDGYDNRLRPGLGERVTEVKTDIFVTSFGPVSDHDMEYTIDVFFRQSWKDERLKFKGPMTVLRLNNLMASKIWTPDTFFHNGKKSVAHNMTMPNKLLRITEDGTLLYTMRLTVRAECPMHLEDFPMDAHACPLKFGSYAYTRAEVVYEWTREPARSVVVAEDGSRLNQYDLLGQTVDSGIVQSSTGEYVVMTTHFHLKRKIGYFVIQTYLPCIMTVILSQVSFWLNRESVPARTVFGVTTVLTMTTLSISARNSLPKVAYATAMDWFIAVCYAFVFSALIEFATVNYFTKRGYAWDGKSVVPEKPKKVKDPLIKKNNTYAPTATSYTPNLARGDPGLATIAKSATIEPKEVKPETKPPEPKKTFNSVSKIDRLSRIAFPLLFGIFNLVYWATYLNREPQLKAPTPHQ
Experiment [5] addresses T4, Endothelin receptor type B (Homo sapiens, UniProt P24530).
T4 sequence (P24530 whole entry): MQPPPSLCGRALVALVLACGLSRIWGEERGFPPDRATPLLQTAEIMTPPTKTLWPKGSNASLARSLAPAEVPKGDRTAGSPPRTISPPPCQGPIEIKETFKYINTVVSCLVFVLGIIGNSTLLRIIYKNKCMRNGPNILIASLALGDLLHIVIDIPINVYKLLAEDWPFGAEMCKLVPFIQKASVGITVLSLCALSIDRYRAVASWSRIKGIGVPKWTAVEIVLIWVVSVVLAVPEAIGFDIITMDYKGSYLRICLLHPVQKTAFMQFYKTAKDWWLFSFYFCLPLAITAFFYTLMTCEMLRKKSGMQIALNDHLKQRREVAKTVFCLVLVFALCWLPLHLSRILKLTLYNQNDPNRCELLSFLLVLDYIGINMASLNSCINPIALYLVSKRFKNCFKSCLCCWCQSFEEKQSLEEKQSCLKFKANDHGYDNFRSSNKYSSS

Experiment [6] has as its target T5, Muscarinic acetylcholine receptor M1 (Homo sapiens, UniProt P11229).
T5 sequence (P11229 whole entry): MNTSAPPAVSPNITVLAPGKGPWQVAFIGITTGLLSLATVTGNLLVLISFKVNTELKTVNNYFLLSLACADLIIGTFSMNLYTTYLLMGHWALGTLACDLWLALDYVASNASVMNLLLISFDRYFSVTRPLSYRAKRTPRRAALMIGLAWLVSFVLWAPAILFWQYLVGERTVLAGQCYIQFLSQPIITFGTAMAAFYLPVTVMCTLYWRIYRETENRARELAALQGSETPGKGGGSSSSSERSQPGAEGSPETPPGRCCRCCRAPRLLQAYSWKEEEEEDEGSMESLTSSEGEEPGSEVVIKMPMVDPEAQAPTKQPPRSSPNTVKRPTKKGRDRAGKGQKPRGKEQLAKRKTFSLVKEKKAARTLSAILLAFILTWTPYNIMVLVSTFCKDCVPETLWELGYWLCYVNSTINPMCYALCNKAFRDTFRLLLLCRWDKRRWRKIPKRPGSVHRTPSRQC
The experiment is classed as functional, cell-based.
Also: assay procedure not described here.

Glucagon receptor, sequence (P47871 whole entry): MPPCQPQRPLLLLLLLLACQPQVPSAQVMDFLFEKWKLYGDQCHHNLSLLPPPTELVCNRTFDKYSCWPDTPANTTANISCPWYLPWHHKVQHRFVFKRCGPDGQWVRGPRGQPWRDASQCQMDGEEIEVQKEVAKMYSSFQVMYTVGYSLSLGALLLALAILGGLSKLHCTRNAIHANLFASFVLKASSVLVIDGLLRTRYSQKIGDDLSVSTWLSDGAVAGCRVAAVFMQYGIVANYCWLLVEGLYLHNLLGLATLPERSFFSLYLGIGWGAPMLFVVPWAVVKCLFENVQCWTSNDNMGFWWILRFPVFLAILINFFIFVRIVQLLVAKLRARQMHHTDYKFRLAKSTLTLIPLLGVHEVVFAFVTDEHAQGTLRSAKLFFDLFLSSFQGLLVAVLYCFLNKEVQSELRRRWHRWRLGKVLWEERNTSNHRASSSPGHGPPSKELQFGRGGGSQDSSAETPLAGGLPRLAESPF
Substance-P receptor, sequence (P25103 whole entry): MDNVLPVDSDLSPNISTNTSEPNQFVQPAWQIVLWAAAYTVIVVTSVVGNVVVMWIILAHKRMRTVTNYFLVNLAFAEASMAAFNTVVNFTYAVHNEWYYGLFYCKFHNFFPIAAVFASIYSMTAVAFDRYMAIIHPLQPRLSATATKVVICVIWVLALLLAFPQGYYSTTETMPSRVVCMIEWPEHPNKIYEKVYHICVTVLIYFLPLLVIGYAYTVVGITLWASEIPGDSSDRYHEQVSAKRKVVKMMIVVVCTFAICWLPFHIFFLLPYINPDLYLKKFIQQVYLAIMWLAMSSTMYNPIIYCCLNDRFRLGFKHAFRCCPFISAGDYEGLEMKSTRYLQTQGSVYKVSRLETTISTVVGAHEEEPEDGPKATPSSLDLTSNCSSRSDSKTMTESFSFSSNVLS
5-hydroxytryptamine receptor 2B, sequence (P41595 whole entry): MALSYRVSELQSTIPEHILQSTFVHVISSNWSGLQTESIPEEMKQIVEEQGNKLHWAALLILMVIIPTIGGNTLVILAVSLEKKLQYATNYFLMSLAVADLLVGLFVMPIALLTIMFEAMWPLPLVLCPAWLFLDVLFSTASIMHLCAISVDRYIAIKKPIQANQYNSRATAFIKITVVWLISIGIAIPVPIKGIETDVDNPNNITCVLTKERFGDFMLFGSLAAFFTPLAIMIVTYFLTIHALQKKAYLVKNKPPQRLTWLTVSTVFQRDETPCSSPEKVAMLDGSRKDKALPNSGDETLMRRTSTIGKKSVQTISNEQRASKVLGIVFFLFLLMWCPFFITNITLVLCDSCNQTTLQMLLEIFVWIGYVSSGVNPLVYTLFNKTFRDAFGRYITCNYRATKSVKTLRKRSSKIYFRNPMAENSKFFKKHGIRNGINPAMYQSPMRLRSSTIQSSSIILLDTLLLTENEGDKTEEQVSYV
Estrogen receptor beta, sequence (Q92731 whole entry): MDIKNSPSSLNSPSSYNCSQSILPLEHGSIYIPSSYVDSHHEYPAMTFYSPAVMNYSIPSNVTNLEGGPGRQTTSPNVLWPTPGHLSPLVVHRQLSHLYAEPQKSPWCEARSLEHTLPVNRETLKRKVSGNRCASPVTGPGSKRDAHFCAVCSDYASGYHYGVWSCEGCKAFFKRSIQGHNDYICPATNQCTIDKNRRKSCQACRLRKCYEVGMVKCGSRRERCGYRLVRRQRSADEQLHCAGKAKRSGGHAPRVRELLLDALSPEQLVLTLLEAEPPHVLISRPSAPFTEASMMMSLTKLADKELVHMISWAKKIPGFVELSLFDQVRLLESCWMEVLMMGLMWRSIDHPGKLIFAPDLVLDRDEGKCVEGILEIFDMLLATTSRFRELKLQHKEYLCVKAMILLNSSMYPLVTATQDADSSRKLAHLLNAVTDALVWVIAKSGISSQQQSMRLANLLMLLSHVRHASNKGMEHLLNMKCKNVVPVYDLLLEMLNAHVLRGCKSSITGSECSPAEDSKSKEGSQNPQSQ

A word on the AC50: it is the concentration at which the activity in the assay is half-maximal. The low end stands for greater potency, the high end for weaker potency. On to `C[C@H]1O[C@H](O[C@H]2[C@H](O)[C@@H](O)[C@@H](O[C@H]3[C@H](O)[C@@H](O)C(O)O[C@@H]3CO)O[C@@H]2CO)[C@H](O)[C@@H](O)[C@@H]1N[C@H]1C=C(CO)[C@@H](O)[C@H](O)[C@H]1O` (some centres not stated) [ACARBOSE], for which the half-maximal activity concentration (AC50) in [1] is more than 10 µM; in [2], more than 30 µM; at D(4) dopamine receptor it was more than 10 µM; in experiment [3] it was more than 30 µM; in experiment [4], more than 30 µM; in [5], more than 30 µM. Further, the AC50 on Substance-P receptor is more than 10 µM; on Glucagon receptor, more than 30 µM; on Estrogen receptor beta, more than 30 µM.
Turning to `CCc1ccc(CCOc2ccc(CC3SC(=O)NC3=O)cc2)nc1` (configuration not stated) [PIOGLITAZONE], the AC50 in experiment [1] is more than 10 µM; in [2], more than 30 µM; on D(4) dopamine receptor it was more than 10 µM; in [3] it was more than 30 µM; in experiment [4], more than 30 µM; in experiment [5], more than 30 µM. Moreover, the half-maximal activity concentration (AC50) on Substance-P receptor was more than 10 µM; on Glucagon receptor, more than 30 µM; on Estrogen receptor beta, more than 30 µM.
For the molecule `CC(C(=O)O)c1ccc(N2CC=CC2)c(Cl)c1` (configuration not stated) [PIRPROFEN], the AC50 in experiment [1] was more than 10 µM; in experiment [2] it was more than 30 µM; on D(4) dopamine receptor it was more than 10 µM; in experiment [3], more than 30 µM; in experiment [6] it was 28.7 µM; in experiment [5], more than 30 µM. For the same molecule, the half-maximal activity concentration (AC50) is more than 10 µM at Substance-P receptor, more than 30 µM on Glucagon receptor and more than 30 µM on Estrogen receptor beta.
